Assay [1] deals with Sodium-dependent dopamine transporter (Rattus norvegicus, UniProt P23977).
The target in assay [2] is T1, Muscarinic acetylcholine receptor M2 (Rattus norvegicus, UniProt P10980).
T1 sequence (P10980 whole entry): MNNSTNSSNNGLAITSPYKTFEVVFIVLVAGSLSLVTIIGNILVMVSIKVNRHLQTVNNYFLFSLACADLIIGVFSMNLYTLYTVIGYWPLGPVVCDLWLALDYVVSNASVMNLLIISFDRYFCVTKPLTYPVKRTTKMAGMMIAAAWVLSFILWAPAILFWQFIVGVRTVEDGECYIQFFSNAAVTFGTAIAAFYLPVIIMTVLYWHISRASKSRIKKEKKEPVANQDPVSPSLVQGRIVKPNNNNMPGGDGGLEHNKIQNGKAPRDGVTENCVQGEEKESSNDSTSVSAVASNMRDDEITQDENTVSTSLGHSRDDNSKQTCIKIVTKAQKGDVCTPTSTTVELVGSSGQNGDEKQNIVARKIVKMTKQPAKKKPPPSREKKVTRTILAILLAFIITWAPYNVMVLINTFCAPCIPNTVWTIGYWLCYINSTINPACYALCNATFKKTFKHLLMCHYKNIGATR

For assay [3], the target named is Norepinephrine transporter (Rattus norvegicus, UniProt Q9JIA2).

Counter-ions that a name gives are not always drawn.

Sodium-dependent dopamine transporter, sequence (P23977 whole entry): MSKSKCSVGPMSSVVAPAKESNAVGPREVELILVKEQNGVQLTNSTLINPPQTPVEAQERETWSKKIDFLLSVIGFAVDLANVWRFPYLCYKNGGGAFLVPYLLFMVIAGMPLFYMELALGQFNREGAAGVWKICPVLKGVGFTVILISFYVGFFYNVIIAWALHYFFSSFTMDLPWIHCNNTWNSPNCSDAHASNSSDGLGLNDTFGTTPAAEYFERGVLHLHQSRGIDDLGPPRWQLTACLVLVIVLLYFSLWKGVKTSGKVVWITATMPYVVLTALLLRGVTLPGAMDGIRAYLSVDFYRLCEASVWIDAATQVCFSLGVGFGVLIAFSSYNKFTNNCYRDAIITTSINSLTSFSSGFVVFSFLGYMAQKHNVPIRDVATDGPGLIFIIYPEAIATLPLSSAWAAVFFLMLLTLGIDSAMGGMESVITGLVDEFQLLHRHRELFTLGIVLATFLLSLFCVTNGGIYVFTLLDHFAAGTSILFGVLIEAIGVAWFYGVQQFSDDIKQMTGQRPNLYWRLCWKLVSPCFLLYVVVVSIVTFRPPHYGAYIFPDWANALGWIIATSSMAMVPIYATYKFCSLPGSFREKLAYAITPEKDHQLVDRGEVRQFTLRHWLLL

Take `CNC/C=C(/c1ccc(Br)cc1)c1cccnc1`: the inhibitory constant (Ki) in assay [1] was more than 10 µM.
Turning to `CN(C)CCC=C1c2ccccc2CCc2ccccc21`, the inhibition constant (Ki) was more than 10 µM in assay [1], 0.32 µM in assay [2] and 0.13 µM in assay [3].
In the case of `N[C@H]1CC[C@@H](c2ccc(Cl)c(Cl)c2)c2ccccc21`, the Ki in assay [1] turned out to be 3.8 µM; in assay [3] it was 4.6 µM.
Regarding `CN(C)CC/C=C1/c2ccccc2COc2ccccc21`, the Ki in assay [2] is 0.71 µM.
Turning to `CN[C@@H]1CC[C@@H](c2ccccc2)c2ccccc21`, the inhibition constant Ki is 0.15 µM in assay [1], 4.7 µM in assay [2] and 0.018 µM in assay [3].
Regarding `COCCCC/C(=N\OCCN)c1ccc(C(F)(F)F)cc1` [(1E)-5-methoxy-1-[4-(trifluoromethyl)phenyl]pentan-1-one O-(2-aminoethyl)oxime], the results for the Ki in assay [1] and in assay [3] were more than 10 µM and 1.9 µM, respectively.
`CN(C)CCCN1c2ccccc2CCc2ccc(Cl)cc21` [CLOMIPRAMINE HYDROCHLORIDE] gave a Ki in assay [1] of 8.1 µM.
In assay [2], `CNCCCN1c2ccccc2CCc2ccccc21` [Desmethylimipramine] registered a Ki of 3.5 µM.
As to `CNCCC=C1c2ccccc2CCc2ccccc21` [NORTRIPTYLINE], the Ki in assay [1] was more than 10 µM; in assay [3], 0.025 µM.
`CN[C@@H]1CC[C@@H](c2ccc(Cl)c(Cl)c2)c2ccccc21` [[4-(3,4-Dichloro-phenyl)-1,2,3,4-tetrahydro-naphthalen-1-yl]-methyl-amine]: in assay [2], the inhibition constant (Ki) is more than 10 µM.
The molecule `CN(C)C/C=C(/c1ccc(Br)cc1)c1cccnc1` [cis-[3-(4-Bromo-phenyl)-3-pyridin-3-yl-allyl]-dimethyl-amine;HCl] came in with a Ki in assay [1] of more than 10 µM.

For the origin of these results see BindingDB's records for PubMed 6310078 (Pfizer, 1983).
